Experimental data taken from ChEMBL document CHEMBL2380302, “Synthesis of 3-O-propargylated betulinic acid and its 1,2,3-triazoles as potential apoptotic agents” (Eur J Med Chem, 2013).

Assays:
THP-1 [1] = assay: Cytotoxicity against human THP1 cells at 50 uM after 48 hrs by SRB assay; assay type: functional; conditions: THP-1, 48 h, read-out: GI
HL-60 [2] = assay: Cytotoxicity against human HL60 cells at 10 uM after 48 hrs by SRB assay; assay type: functional; conditions: HL-60, 48 h, read-out: GI
DU-145 [3] = assay: Cytotoxicity against human DU145 cells at 50 uM after 48 hrs by SRB assay; assay type: functional; conditions: DU-145, 48 h, read-out: GI
PC-3 [4] = assay: Cytotoxicity against human PC3 cells at 10 uM after 48 hrs by SRB assay; assay type: functional; conditions: PC-3, 48 h, read-out: GI
PC-3 [5] = assay: Cytotoxicity against human PC3 cells after 48 hrs by SRB assay; assay type: functional, cell-based; conditions: PC-3, 48 h
SF-295 [6] = assay: Cytotoxicity against human SF295 cells at 10 uM after 48 hrs by SRB assay; assay type: functional; conditions: SF-295, 48 h, read-out: GI
PC-3 [7] = assay: Cytotoxicity against human PC3 cells at 50 uM after 48 hrs by SRB assay; assay type: functional; conditions: PC-3, 48 h, read-out: GI
DU-145 [8] = assay: Cytotoxicity against human DU145 cells at 10 uM after 48 hrs by SRB assay; assay type: functional; conditions: DU-145, 48 h, read-out: GI
A549 [9] = assay: Cytotoxicity against human A549 cells at 10 uM after 48 hrs by SRB assay; assay type: functional; conditions: A549, 48 h, read-out: GI
A549 [10] = assay: Cytotoxicity against human A549 cells after 48 hrs by SRB assay; assay type: functional, cell-based; conditions: A549, 48 h
HEp-2 [11] = assay: Cytotoxicity against human Hep2 cells at 10 uM after 48 hrs by SRB assay; assay type: functional; conditions: HEp-2, 48 h, read-out: GI
HEp-2 [12] = assay: Cytotoxicity against human Hep2 cells at 50 uM after 48 hrs by SRB assay; assay type: functional; conditions: HEp-2, 48 h, read-out: GI
HCT-15 [13] = assay: Cytotoxicity against human HCT15 cells at 50 uM after 48 hrs by SRB assay; assay type: functional; conditions: HCT-15, 48 h, read-out: GI
MCF7 [14] = assay: Cytotoxicity against human MCF7 cells at 10 uM after 48 hrs by SRB assay; assay type: functional; conditions: MCF7, 48 h, read-out: GI
THP-1 [15] = assay: Cytotoxicity against human THP1 cells after 48 hrs by SRB assay; assay type: functional, cell-based; conditions: THP-1, 48 h
PC-3 [16] = assay: Cytotoxicity against human PC3 cells at 30 uM after 48 hrs by SRB assay; assay type: functional; conditions: PC-3, 48 h, read-out: GI
HL-60 [17] = assay: Cytotoxicity against human HL60 cells at 50 uM after 48 hrs by SRB assay; assay type: functional; conditions: HL-60, 48 h, read-out: GI
MCF7 [18] = assay: Cytotoxicity against human MCF7 cells at 30 uM after 48 hrs by SRB assay; assay type: functional; conditions: MCF7, 48 h, read-out: GI
SF-295 [19] = assay: Cytotoxicity against human SF295 cells at 50 uM after 48 hrs by SRB assay; assay type: functional; conditions: SF-295, 48 h, read-out: GI
HCT-15 [20] = assay: Cytotoxicity against human HCT15 cells after 48 hrs by SRB assay; assay type: functional, cell-based; conditions: HCT-15, 48 h
HCT-15 [21] = assay: Cytotoxicity against human HCT15 cells at 30 uM after 48 hrs by SRB assay; assay type: functional; conditions: HCT-15, 48 h, read-out: GI
THP-1 [22] = assay: Cytotoxicity against human THP1 cells at 30 uM after 48 hrs by SRB assay; assay type: functional; conditions: THP-1, 48 h, read-out: GI
HEp-2 [23] = assay: Cytotoxicity against human Hep2 cells at 30 uM after 48 hrs by SRB assay; assay type: functional; conditions: HEp-2, 48 h, read-out: GI
A549 [24] = assay: Cytotoxicity against human A549 cells at 50 uM after 48 hrs by SRB assay; assay type: functional; conditions: A549, 48 h, read-out: GI
DU-145 [25] = assay: Cytotoxicity against human DU145 cells at 30 uM after 48 hrs by SRB assay; assay type: functional; conditions: DU-145, 48 h, read-out: GI
HL-60 [26] = assay: Cytotoxicity against human HL60 cells at 30 uM after 48 hrs by SRB assay; assay type: functional; conditions: HL-60, 48 h, read-out: GI
SF-295 [27] = assay: Cytotoxicity against human SF295 cells after 48 hrs by SRB assay; assay type: functional, cell-based; conditions: SF-295, 48 h
DU-145 [28] = assay: Cytotoxicity against human DU145 cells after 48 hrs by SRB assay; assay type: functional, cell-based; conditions: DU-145, 48 h
THP-1 [29] = assay: Cytotoxicity against human THP1 cells at 10 uM after 48 hrs by SRB assay; assay type: functional; conditions: THP-1, 48 h, read-out: GI
HL-60 [30] = assay: Cytotoxicity against human HL60 cells after 48 hrs by SRB assay; assay type: functional, cell-based; conditions: HL-60, 48 h
MCF7 [31] = assay: Cytotoxicity against human MCF7 cells after 48 hrs by SRB assay; assay type: functional, cell-based; conditions: MCF7, 48 h
SF-295 [32] = assay: Cytotoxicity against human SF295 cells at 30 uM after 48 hrs by SRB assay; assay type: functional; conditions: SF-295, 48 h, read-out: GI
A549 [33] = assay: Cytotoxicity against human A549 cells at 30 uM after 48 hrs by SRB assay; assay type: functional; conditions: A549, 48 h, read-out: GI
MCF7 [34] = assay: Cytotoxicity against human MCF7 cells at 50 uM after 48 hrs by SRB assay; assay type: functional; conditions: MCF7, 48 h, read-out: GI
HCT-15 [35] = assay: Cytotoxicity against human HCT15 cells at 10 uM after 48 hrs by SRB assay; assay type: functional; conditions: HCT-15, 48 h, read-out: GI
HEp-2 [36] = assay: Cytotoxicity against human Hep2 cells after 48 hrs by SRB assay; assay type: functional, cell-based; conditions: HEp-2, 48 h

Row | SMILES | inhibition of growth at 50 µM (THP-1 [1]) [%] | inhibition of growth at 10 µM (HL-60 [2]) [%] | inhibition of growth at 50 µM (DU-145 [3]) [%] | inhibition of growth at 10 µM (PC-3 [4]) [%] | IC50 (PC-3 [5]) [µM] | inhibition of growth at 10 µM (SF-295 [6]) [%] | inhibition of growth at 50 µM (PC-3 [7]) [%] | inhibition of growth at 10 µM (DU-145 [8]) [%] | inhibition of growth at 10 µM (A549 [9]) [%] | IC50 (A549 [10]) [µM] | inhibition of growth at 10 µM (HEp-2 [11]) [%] | inhibition of growth at 50 µM (HEp-2 [12]) [%] | inhibition of growth at 50 µM (HCT-15 [13]) [%] | inhibition of growth at 10 µM (MCF7 [14]) [%] | IC50 (THP-1 [15]) [µM] | inhibition of growth at 30 µM (PC-3 [16]) [%] | inhibition of growth at 50 µM (HL-60 [17]) [%] | inhibition of growth at 30 µM (MCF7 [18]) [%] | inhibition of growth at 50 µM (SF-295 [19]) [%] | IC50 (HCT-15 [20]) [µM] | further results
1 | C=C(C)[C@@H]1CC[C@]2(C(=O)O)CC[C@]3(C)[C@H](CC[C@@H]4[C@@]5(C)CC[C@H](O)C(C)(C)[C@@H]5CC[C@]43C)[C@@H]12 [BETULINIC ACID] | 99 | 35 | 84 | 8 | 37 | 11 | 94 | 12 | 20 | 31 | 41 | 78 | 94 | 7 | 20 | 29 | 98 | 36 | 99 | 12 | inhibition of growth at 30 µM (HCT-15 [21]): 80%; inhibition of growth at 30 µM (THP-1 [22]): 69%; inhibition of growth at 30 µM (HEp-2 [23]): 66%; inhibition of growth at 50 µM (A549 [24]): 74%; inhibition of growth at 30 µM (DU-145 [25]): 70%; inhibition of growth at 30 µM (HL-60 [26]): 73%; IC50 (SF-295 [27]): 22 µM; IC50 (DU-145 [28]): 22 µM; inhibition of growth at 10 µM (THP-1 [29]): 30%; IC50 (HL-60 [30]): 17 µM; IC50 (MCF7 [31]): 37 µM; inhibition of growth at 30 µM (SF-295 [32]): 88%; inhibition of growth at 30 µM (A549 [33]): 48%; inhibition of growth at 50 µM (MCF7 [34]): 80%; inhibition of growth at 10 µM (HCT-15 [35]): 45%; IC50 (HEp-2 [36]): 16 µM
2 | C=C(C)[C@@H]1CC[C@]2(C(=O)O)CC[C@]3(C)[C@H](CC[C@@H]4[C@@]5(C)CC[C@H](OCc6cn(-c7ccc([N+](=O)[O-])cc7)nn6)C(C)(C)[C@@H]5CC[C@]43C)[C@@H]12 | 93 | 63 | 72 | 48 | 13 | 52 | 74 | 43 | 28 | 15 | 43 | 72 | 65 | 20 | 9 | 59 | 94 | 44 | 87 | 28 | inhibition of growth at 30 µM (HCT-15 [21]): 52%; inhibition of growth at 30 µM (THP-1 [22]): 68%; inhibition of growth at 30 µM (HEp-2 [23]): 54%; inhibition of growth at 50 µM (A549 [24]): 62%; inhibition of growth at 30 µM (DU-145 [25]): 54%; inhibition of growth at 30 µM (HL-60 [26]): 78%; IC50 (SF-295 [27]): 8 µM; IC50 (DU-145 [28]): 24 µM; inhibition of growth at 10 µM (THP-1 [29]): 51%; IC50 (HL-60 [30]): 4.5 µM; IC50 (MCF7 [31]): 38 µM; inhibition of growth at 30 µM (SF-295 [32]): 72%; inhibition of growth at 30 µM (A549 [33]): 49%; inhibition of growth at 50 µM (MCF7 [34]): 53%; inhibition of growth at 10 µM (HCT-15 [35]): 36%; IC50 (HEp-2 [36]): 15 µM
3 | C=C(C)[C@@H]1CC[C@]2(C(=O)O)CC[C@]3(C)[C@H](CC[C@@H]4[C@@]5(C)CC[C@H](OCc6cn(-c7cccc(CO)c7)nn6)C(C)(C)[C@@H]5CC[C@]43C)[C@@H]12 | 93 | 53 | 65 | 4 | 50 | 27 | 49 | 43 | 43 | 32 | 51 | 78 | 71 | 36 | 10 | 29 | 95 | 71 | 47 | 25 | inhibition of growth at 30 µM (HCT-15 [21]): 70%; inhibition of growth at 30 µM (THP-1 [22]): 91%; inhibition of growth at 30 µM (HEp-2 [23]): 74%; inhibition of growth at 50 µM (A549 [24]): 67%; inhibition of growth at 30 µM (DU-145 [25]): 52%; inhibition of growth at 30 µM (HL-60 [26]): 93%; IC50 (SF-295 [27]): 53 µM; IC50 (DU-145 [28]): 23 µM; inhibition of growth at 10 µM (THP-1 [29]): 50%; IC50 (HL-60 [30]): 7 µM; IC50 (MCF7 [31]): 17 µM; inhibition of growth at 30 µM (SF-295 [32]): 37%; inhibition of growth at 30 µM (A549 [33]): 45%; inhibition of growth at 50 µM (MCF7 [34]): 75%; inhibition of growth at 10 µM (HCT-15 [35]): 11%; IC50 (HEp-2 [36]): 8 µM
